Reference: patent publication US6063819A (priority 1998, dated 2000)
Entries after “also recorded” stand apart in the source; their conditions may differ. Read-outs that look alike come from different tables or passages of the source.

Key:
L-type calcium channels = experiment: Competitive inhibition of 3H-PN200-110 (or 3H-nitrendipine) binding to L-type calcium channels, rat brain neuronal membranes; settings: Table 1
[1] = tested on: neurons in CA1 and CA2 fields of the hippocampus and in the subiculum; experiment: In vivo protection against global brain ischemia (bilateral carotid occlusion, gerbils); design: species or system Adult male Mongolian gerbils; settings: for median number of visibly damaged neurons, CA2: saline controls 23.9; for median number of visibly damaged neurons, Subiculum: saline controls 214.0; for median number of visibly damaged neurons, CA1: saline controls 235.5; for protection against ischemia: gerbils, IP
Procedure: Adult male Mongolian gerbils, 50 to 60 grams body weight, were put under methoxyflurane anesthesia and surgically subjected to reversible bilateral carotid occlusion for 5 minutes, using published methods (Wasterlain et al 1996). Occlusion was produced by exposure of both common carotid arteries via a ventral midline incision, isolation of the carotids with 4-0 silk suture, and application of microaneurysm clips. After five minutes of occlusion, the clips were removed, and the incision was closed. Body temperature was maintained at 37° C. throughout the surgical and recovery periods.
Blockage of both common carotids generates global brain ischemia in most gerbils. However, some gerbils contain a vascular structure at the base of the brain which resembles the Circle of Willis in humans, which allows some commingling of oxygenated blood from the carotid and vertebral arteries. Accordingly, the surgical method of generating global ischemia in gerbils by clamping flow through the carotids is not completely reliable in all test animals. To overcome this problem, a sufficient number of gerbils must be treated and tested to ensure statistically significant and reliable results.
A solution containing the test compound (or saline, as a control) was administered at the dosage and time described below, via intraperitoneal (IP) injection. The gerbils were sacrificed 72 hours later, and the brains were perfusion-fixed with paraformaldehyde. Serial sections of the brain were cut and stained with hematoxylin and eosin, and quantitative cell counts of live and dead neurons in the CA1 and CA2 fields of the hippocampus and in the subiculum were made, using both light and fluorescence microscopy. Evaluation of neuronal damage in other brain regions was also made on a semi-quantitative scale, and statistical analysis was performed on all damage scores (non-paired Student's T test).
The in vivo tests involving the CYP-PA2 compound used two different dosage regimens. One set of test animals received two injections: 30 mg/kg, at 30 minutes prior to the start of ischemia, and another 30 mg/kg at 90 minutes after the termination of ischemia. […] This neuroprotective activity was statistically significant at higher than the 95% level. A second set of test animals received a smaller dosage (10 mg/kg) of CYP-PA2, in a single injection 30 minutes before the onset of ischemia.
Tests on the CYP-PA1 compound used three different dosage levels: 7.5 mg/kg, injected 30 minutes before occlusion began; 20 mg/kg, injected 30 minutes before occlusion began; and 20 mg/kg, injected 30 minutes after occlusion was terminated.
The values reported in Table 3 are median numbers of visibly damaged neurons, counted in a single entire tissue slice.

[2] = tested on: neurons of the CA1 region of the hippocampus; experiment: Hippocampal slice assay: protection of CA1 neurons against hypoxic injury (recovery of population spike); format: cell-based, male Sprague-Dawley rats; settings: for EC50: Rattus norvegicus, Neuron, 1 h, 50% recovery 60 minutes after hypoxia; for relative potency in hippocampal slices: comparison CYP-PA2 with CYP-PA1, or CYP-PA2X with CYP-PA2
Procedure: (2) Additional in vitro tests involving perfused slices of hippocampal tissue from the brains of sacrificed rats, as described in Example 8. Various poly-guanidino candidates with good combinations of N-channel and P/Q-channel blocking potency (as shown in the ligand blocking assays of Example 7) were tested to determine their ability to protect hippocampal neurons against damage during and after a period of tissue hypoxia.
The ability of CYP-PA1 and CYP-PA2 to protect against hypoxic injury in neurons of the CA1 region of the hippocampus was examined, using an assay which involves intact tissue sections taken from the hippocampal regions of rat brains. To carry out these assays, male Sprague-Dawley rats were briefly anesthetized with halothane and decapitated. Brains were quickly removed and placed in cold artificial cerebral spinal fluid (ACSF) for one minute. ACSF was composed of (in mM): NaCl, 126; KCl, 4; KH2 PO4, 1.4; MgSO4, 1.3; CaCl2, 2.4; NaHCO3, 26; and glucose, 4; pH 7.4, saturated with 95% O2, 5% CO2. Hippocampi were dissected free from the brains, and cut into 475 μm transverse sections (also called slices). The slices were placed in paired recording wells perfused with ACSF maintained at 37° C. Several hippocampal slices were placed in each recording well.
One hour after placement of the tissue slices into recording wells, the orthodromic CA1 population spike (PS) was measured. This indicator of synaptic and neuronal cell body function was elicited by stimulation with a twisted bipolar electrode placed over the CA3 Schaffer collaterals. Responses were recorded in the pyramidal layer of CA1, using a tungsten electrode. Strengths of currents and recording electrode depth were adjusted to obtain maximal amplitude of the CA1 PS. Only slices having an orthodromic CA1 PS of 3 mV or greater on initial assessment were used for further testing.
One tissue slice in each well was given orthodromic stimulation every 30 seconds throughout the experiment, in order to monitor evoked response activity. These slices were designated as "stimulated slices." In general, periodic stimulation provides an even more rigorous test of neuroprotective ability, since the repeated stimulation forces neurons to use up their metabolic resources after each impulse, to reestablish a polarized and ready-to-fire status.
For the remaining slices in each well, orthodromic and antidromic PS amplitude was assessed at the beginning and end of each experiment, without any periodic stimulation. These slices were designated as "unstimulated slices."
All slices were subjected to hypoxia by changing the perfusion medium to oxygen-devoid ACSF saturated with 95% N2, 5% CO2. Slices in one recording well additionally received exposure to various concentrations of the poly-guanidino compounds discussed above, added directly into the perfusion ACSF. Hypoxic duration was continued until 5 minutes after the disappearance of the hypoxic injury potential (Fairchild et al 1988) in the unmedicated stimulated slice. Final recovery was assessed 60 minutes after returning to oxygenated conditions. Exposure to the poly-guanidino compounds began 30 minutes prior to hypoxia and continued through the first 15 minutes of recovery.

[3] = LD50 toxicity test, intraperitoneal injection in mice; format: in vivo; settings: for LD50: mouse, in vivo, ip
Procedure: At roughly the same time as the hippocampal tissue tests were being carried out, various polyamine compounds were also tested in toxicity tests, using conventional LD50 tests in mice. […] According, subsequent in vivo tests focused mainly on the CYP-PA1 compound.
These tests used intraperitoneal (IP) injection in mice.

T channels = settings: background; cited from earlier work
L-type channels = settings: background; cited from earlier work
[4] = 20 mg/kg IP post (30 minutes after occlusion terminated)
[5] = stimulated slices, antidromic, read-out: EC50, antidromic PS amplitude, stimulated slices
[6] = stimulated slices, orthodromic, read-out: EC50, orthodromic PS amplitude, stimulated slices
[7] = unstimulated slices, antidromic, read-out: EC50, antidromic PS amplitude, unstimulated slices
[8] = unstimulated slices, orthodromic, read-out: EC50, orthodromic PS amplitude, unstimulated slices

Q: With `N=C(N)NCCC[C@H](N)C(=O)NCCN(CCNC(=O)[C@@H](N)CCCNC(=N)N)CCNC(=O)[C@@H](N)CCCNC(=N)N` [CYP-PA1, tris(arginyl-2-aminoethyl)amine] as the compound, how does the IC50 (L-type calcium channels) read?
A: Its IC50 is greater than 300 µM.

Q: What about the “median number of visibly damaged neurons, CA2” value (from here on “median number … CA2”) ([1]; 7.5 mg/kg IP pre-occlusion) of the same compound?
A: The value was 15.2.

Q: What about the “median number of visibly damaged neurons, Subiculum” value (“median number … Subiculum” below) ([1]; 7.5 mg/kg IP pre-occlusion) of the same compound?
A: The value was 91.5.

Q: What about the “median number of visibly damaged neurons, CA1” value (“median number … CA1” for short) ([1]; 7.5 mg/kg IP pre-occlusion) of the same compound?
A: The value was 37.5.

Q: What about the “median number … CA2” value [1, 4] of the same compound?
A: The value was 14.7.

Q: What about the “median number … Subiculum” value [1, 4] of the same compound?
A: Its value is 31.0.

Q: And the “median number … CA1” value [1, 4]?
A: The value was 14.5.

Q: And the “median number … CA2” value ([1]; 20 mg/kg IP pre-occlusion)?
A: Its value is 10.4.

Q: And the “median number … Subiculum” value ([1]; 20 mg/kg IP pre-occlusion)?
A: The value was 38.5.

Q: And the “median number … CA1” value ([1]; 20 mg/kg IP pre-occlusion)?
A: Its value is 18.0.

Q: And the “significance of reduction in neuronal damage, CA2” value ([1]; CA2 region)?
A: The value was “did not rise to the level of significance at the 95% confidence level”.

Q: And the “number of injured neurons vs saline-treated controls” value ([1]; all treatment dosages)?
A: The value was “substantially reduced”.

Q: And the “protection against ischemia” value [1]?
A: Its value is “quite substantial and beneficial; also recorded: substantial and beneficial protection against actual ischemia”.

Q: What about the “significance level of reduction in neuronal damage, subiculum and CA1” value ([1]; subiculum and CA1 regions) of the same compound?
A: The value was no less than 98%.

Q: And the “neuroprotective activity in hippocampal slices” value [2]?
A: The value was “substantial neuroprotective activity”.

Q: What about the EC50 [2, 5] of the same compound?
A: Its EC50 is 95 µM.

Q: What about the EC50 [2, 6] of the same compound?
A: Its EC50 is 97 µM.

Q: And the EC50 [2, 7]?
A: The EC50 was 87 µM.

Q: And the EC50 [2, 8]?
A: The EC50 was 90 µM.

Q: And the “toxicity: lethal or other adverse effects” value ([3]; IP, even at highest dosage tested (200 mg/kg))?
A: Its value is “no detectable lethal or other adverse effects; also recorded: completely free of any toxicity concerns”.

Q: What does the source list for `N=C(N)NCCC[C@H](NC(=O)[C@@H](N)CCCNC(=N)N)C(=O)NCCN(CCNC(=O)[C@H](CCCNC(=N)N)NC(=O)[C@@H](N)CCCNC(=N)N)CCNC(=O)[C@H](CCCNC(=N)N)NC(=O)[C@@H](N)CCCNC(=N)N` [CYP-PA2, Tris(arginyl-arginyl-2-aminoethyl)amine]?
A: IC50 (L-type calcium channels): > 100 µM; statistical significance of reduction of neuronal damage ([1]; 10 mg/kg IP single injection): did not reach the 95% confidence level; neurons damaged ([1]; 10 mg/kg IP single injection 30 minutes before ischemia, untreated control 74.6%): 56.1%; neurons showing visible damage ([1]; 2 x 30 mg/kg IP, 30 minutes before and 90 minutes after ischemia, untreated control 74.6%): 40.9%; statistical significance of neuroprotective activity ([1]; 2 x 30 mg/kg IP, confidence level): > 95%; protection against ischemia [1]: good neuroprotective activity; also recorded: substantial and beneficial protection against actual ischemia; neuroprotective activity in hippocampal slices [2]: substantial neuroprotective activity; also recorded: potent neuroprotective benefits; EC50 [2, 5]: 42 µM; EC50 [2, 6]: 43 µM; EC50 [2, 7]: 37 µM; EC50 [2, 8]: 38 µM; relative potency in hippocampal slices [2]: somewhat more potent than the tri-arginine compound, CYP-PA1; LD50 ([3]; read-out: LD50): ~125 mg/kg; LD50 ([3]; read-out: LD50 level): 125 mg/kg

Q: With `N=C(N)NCCC[C@H](NC(=O)[C@@H](N)CCCNC(=N)N)C(=O)NCCN(CCN)CCNC(=O)[C@H](CCCNC(=N)N)NC(=O)[C@@H](N)CCCNC(=N)N` [CYP-PA2X] as the compound, how does the “relative potency in hippocampal slices” value [2] read?
A: The value was “not as potent as the fully di-arginylated compound CYP-PA2”.

Q: With `Fc1ccc(C(c2ccc(F)cc2)N2CCN(C/C=C/c3ccccc3)CC2)cc1` [flunarizine] as the compound, how does the “binding to T channels” value (T channels) read?
A: Its value is “not to T or N channels”.

Q: What about the “binding to L-type channels” value (L-type channels) of the same compound?
A: Its value is “bind to L-type channels”.

Q: Which “binding to T channels” value (T channels) does the source give for `COC(=O)C1=C(C)NC(C)=C(C(=O)OCCN(C)Cc2ccccc2)C1c1cccc([N+](=O)[O-])c1` (centres unmarked) [nicardipine] here?
A: The value was “not to T or N channels”.

Q: And the “binding to L-type channels” value (L-type channels)?
A: The value was “bind to L-type channels”.

Q: For `COC(=O)C1=C(C)NC(C)=C(C(=O)OC)C1c1ccccc1[N+](=O)[O-]` [nifedipine], which “binding to T channels” value (T channels) is on record?
A: Its value is “not to T or N channels”.

Q: What about the “binding to L-type channels” value (L-type channels) of the same compound?
A: Its value is “bind to L-type channels”.
